Data: the supplement of paper PMC10011410
± gives the standard deviation of the averaged measurements.

Columns and labels:
[1] = test system: U-2 OS; experiment: intracellular GSH:GSSG ratio (calculated); higher = more reduced glutathione pool; conditions: 24 h
Protocol: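 Intracellular glutathione in U-2 OS cells after 24 h compound treatment at 5, 10 and 20 uM (some at 40 and 80 uM). Total glutathione and GSSG were measured with the GSH/GSSG-Glo kit, and the GSH:GSSG ratio was calculated. Mean of five technical replicate plates.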

[2] = test system: U-2 OS; experiment: cell viability (CellTiter-Glo) relative to DMSO (% of control); higher = more viable; conditions: 24 h
Protocol: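 Cell viability of U-2 OS cells by CellTiter-Glo after 24 h compound treatment at 5, 10 and 20 uM (some at 40 and 80 uM), measured in parallel with the glutathione assay, as percent of DMSO control. Five technical replicate plates, averaged.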

[3] = test system: U-2 OS; experiment: cell painting activity score (Mahalanobis distance from DMSO wells); higher = stronger morphological phenotype; conditions: 24 h
Procedure, shortened: (§1)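 U-2 OS cells were seeded at about 1,500 per well in 384-well plates and treated by pin tool for 24 h at 37 °C, usually at six 2-fold concentrations from 20 μM to 625 nM. After staining with MitoTracker, concanavalin A, phalloidin, wheat germ agglutinin, Hoechst and SYTO 14, plates were imaged on an Opera Phenix and features were extracted with CellProfiler and normalized to DMSO cells on the same plate. The activity score is the Mahalanobis distance from DMSO wells, and cell count is given relative to DMSO wells. Each value is the mean of four replicate plates.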

[4] = test system: U-2 OS; experiment: relative cell count vs DMSO (cell painting) (fraction of DMSO control); higher = more cells remaining (less cytotoxic); conditions: 24 h
Procedure, shortened: as §1

[5] = test system: U-2 OS; experiment: AUC of culture confluence over time (live-cell imaging) (AUC (confluence % x time)); higher = more confluent culture (less growth inhibition)
Procedure, shortened: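 Live-cell imaging tracked confluence of U-2 OS cells grown in F-12K medium plus 10% FBS. After seeding at 750 cells per well in 384-well plates, cells received compounds by pin tool 24 h later, mostly at 20, 10 and 5 μM, with 0.2% DMSO. Plates stayed at 37 °C and were imaged every 4 h for up to 60 h. Each value is the area under the confluence-versus-time curve.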

[6] = test system: U-2 OS; experiment: total intracellular glutathione (GSH + GSSG) relative to DMSO (% of control); higher = more glutathione; conditions: 24 h
Protocol: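 Total intracellular glutathione (GSH + GSSG) in U-2 OS cells by GSH/GSSG-Glo after 24 h compound treatment at 5, 10 and 20 uM (some at 40 and 80 uM), as percent of DMSO control. Five technical replicate plates, averaged.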

| SMILES | intracellular GSH:GSSG ratio ([1]; 5 µM) | intracellular GSH:GSSG ratio ([1]; 10 µM) | intracellular GSH:GSSG ratio ([1]; 20 µM) | intracellular GSH:GSSG ratio ([1]; 40 µM) | intracellular GSH:GSSG ratio ([1]; 80 µM) | cell viability ([2]; 5 µM) | cell viability ([2]; 10 µM) | cell viability ([2]; 20 µM) | cell viability ([2]; 40 µM) | cell viability ([2]; 80 µM) | cell painting activity score ([3]; 0.625 µM) | cell painting activity score ([3]; 1.25 µM) | cell painting activity score ([3]; 2.5 µM) | cell painting activity score ([3]; 5 µM) | cell painting activity score ([3]; 10 µM) | cell painting activity score ([3]; 20 µM) | cell painting activity score ([3]; 40 µM) | cell painting activity score ([3]; 80 µM) | relative cell count ([4]; 0.625 µM) | relative cell count ([4]; 1.25 µM) | relative cell count ([4]; 2.5 µM) | relative cell count ([4]; 5 µM) | relative cell count ([4]; 10 µM) | relative cell count ([4]; 20 µM) | relative cell count ([4]; 40 µM) | relative cell count ([4]; 80 µM) | AUC of culture confluence over time ([5]; 5 µM) | AUC of culture confluence over time ([5]; 10 µM) | AUC of culture confluence over time ([5]; 20 µM) | AUC of culture confluence over time ([5]; 40 µM) | AUC of culture confluence over time ([5]; 80 µM) | total intracellular glutathione ([6]; 5 µM) | total intracellular glutathione ([6]; 10 µM) | total intracellular glutathione ([6]; 20 µM) | total intracellular glutathione ([6]; 40 µM) | total intracellular glutathione ([6]; 80 µM) |
| --- | --- | --- | --- | --- | --- | --- | --- | --- | --- | --- | --- | --- | --- | --- | --- | --- | --- | --- | --- | --- | --- | --- | --- | --- | --- | --- | --- | --- | --- | --- | --- | --- | --- | --- | --- | --- |
| CCCCCCCCCCCC1=C(O)C(=O)C=C(O)C1=O | 32.2 | 27.4 | 35.5 | 15.8 | 31.4 | 102 ± 5.8 | 97.6 ± 2.5 | 98.7 ± 5.4 | 70.1 ± 25 | 93.3 ± 4.2 | 4.78 | 4.55 | 7.31 | 4.7 | 8.2 | 25 | 22.2 | 21.8 | 0.898 | 0.848 | 0.944 | 0.907 | 0.478 | 0.08 | 0.237 | 0.332 | – | – | – | – | – | – | – | – | – | – |
| COc1cc(/C=C/c2cc(/C=C/c3ccc(O)c(OC)c3)n(-c3ccc(C(=O)[O-])cc3)n2)ccc1O.[Na+] | 40 | 33 | 36.1 | 30.8 | 11.8 | 101 ± 2.3 | 95.6 ± 2.5 | 93.6 ± 3.2 | 89.6 ± 3.4 | 68.4 ± 3.8 | 7.1 | 4.98 | 6.19 | 4.45 | 6.38 | 6.87 | 5.98 | 9 | 1.04 | 1.08 | 1.05 | 1.07 | 1.09 | 1.05 | 0.866 | 0.789 | 45.1 | 42.2 | 42.1 | 27.3 | 25.3 | – | – | – | – | – |
| CCCC[S@](=N)(=O)CC[C@H](N)C(=O)O | – | – | – | – | – | 101 ± 5.1 | 99.5 ± 3.6 | 95 ± 4.3 | 101 ± 6.9 | 106 ± 4 | 3.99 | 4.5 | 4.98 | 4.52 | 4 | 4.46 | – | – | 0.986 | 1.04 | 0.992 | 1.04 | 1.01 | 1.06 | – | – | – | – | – | – | – | 19.6 ± 2 | 16.8 ± 2.1 | 14.1 ± 1.3 | 11 ± 1.6 | 10.7 ± 1 |
| CCN(CCO)CCCOc1ccc2c(Nc3cc(CC(=O)Nc4cccc(F)c4)[nH]n3)ncnc2c1 | – | – | – | – | – | – | – | – | – | – | 14.3 | 14.4 | 14.3 | 14.3 | 14.5 | 14.9 | – | – | 0.771 | 0.757 | 0.76 | 0.8 | 0.788 | 0.757 | – | – | 30.4 | 32.1 | 29.6 | – | – | – | – | – | – | – |
